Source: ChEMBL document CHEMBL4513134, “CO-ADD screening of University of Queensland (Australia) compounds” (2021)
Converted amounts (≈) assume the structure as drawn. Values belong to the compound of their own block, whether it stands above or below them.

Experiments:
HEK293 = experiment: cells; assay type: functional, Homo sapiens, ATCC CRL1573; settings: ASSAY_TEST Inhibition of Cell Viability, detection method Resazurin, Fluorescence (ex560/em590), MEDIA DMEM with 10% FBS, plate type 384well, TC, CORNING #3712, time 18 hr
Staphylococcus aureus [1] = experiment: microbe, parasite or virus in culture; settings: ATCC 43300, 18 h, ASSAY_TEST Inhibition of Bacterial Growth, detection method Absorption (OD600), MEDIA CAMHB, plate type 384well, NBS, CORNING #3640
Escherichia coli [2] = experiment: microbe, parasite or virus in culture; settings: ATCC 25922, 18 h, ASSAY_TEST Inhibition of Bacterial Growth, detection method Absorption (OD600), MEDIA CAMHB, plate type 384well, NBS, CORNING #3640
Acinetobacter baumannii [3] = experiment: microbe, parasite or virus in culture; settings: ATCC 19606, 18 h, ASSAY_TEST Inhibition of Bacterial Growth, detection method Absorption (OD600), MEDIA CAMHB, plate type 384well, NBS, CORNING #3640
Klebsiella pneumoniae [4] = experiment: microbe, parasite or virus in culture; settings: ATCC 700603, 18 h, ASSAY_TEST Inhibition of Bacterial Growth, detection method Absorption (OD600), MEDIA CAMHB, plate type 384well, NBS, CORNING #3640
Description: (§1) Antibacterial activity against Klebsiella pneumoniae MDR ATCC 70063 (CO-ADD:GN_003); MIC in CAMBH media using NBS plates, by OD(600)

Candida albicans = experiment: microbe, parasite or virus in culture; settings: ATCC 90028, ASSAY_TEST Inhibition of Fungal Growth, detection method Absorption (OD530), plate type 384well, NBS, CORNING #3640
Description: Antifungal activity against Candida albicans ATCC 90028 (CO-ADD:FG_001); MIC in YNB media using NBS plates, by OD630

Pseudomonas aeruginosa [5] = experiment: microbe, parasite or virus in culture; settings: ATCC 27853, 18 h, ASSAY_TEST Inhibition of Bacterial Growth, detection method Absorption (OD600), MEDIA CAMHB, plate type 384well, NBS, CORNING #3640
Description: (§2) Antibacterial activity against Pseudomonas aeruginosa ATCC 27853 (CO-ADD:GN_042); MIC in CAMBH media using NBS plates, by OD(600)

Klebsiella pneumoniae [6] = settings: ATCC 700603, Concentration 32.0 ug.mL-1
Description: as §1

Acinetobacter baumannii [7] = experiment: Antibacterial activity against Acinetobacter baumannii ATCC 19606 (CO-ADD:GN_034); MIC in CAMBH media using NBS plates, by OD600; settings: Concentration 32.0 ug.mL-1
Staphylococcus aureus [8] = experiment: Antibacterial activity against Staphylococcus aureus MRSA ATCC 43300 (CO-ADD:GP_020); MIC in CAMBH media, using NBS plates, by OD(600); settings: Concentration 32.0 ug.mL-1
Escherichia coli [9] = experiment: Antibacterial activity against Escherichia coli ATCC 25922 (CO-ADD:GN_001); MIC in CAMBH media using NBS plates, by OD(600); settings: Concentration 32.0 ug.mL-1
Pseudomonas aeruginosa [10] = settings: ATCC 27853, Concentration 32.0 ug.mL-1
Description: as §2

[11] = Homo sapiens, ATCC CRL1573, HEK293, read-out: CC50

Description for Cryptococcus neoformans: Antifungal activity against Cryptococcus neoformans H99 ATCC 208821 (CO-ADD:FG_002); MIC in YNB media using NBS plates, by Resazurin OD(600-570)

SMILES: O=[N+]([O-])c1cn2ccnc(OCCc3ccc(OC(F)(F)F)cc3)c2n1
CC50 (HEK293): >100

MIC (Staphylococcus aureus [1]): 16 µg/mL (≈ 49 µM)
SMILES: CN(Cc1ccc(OC(F)F)cc1)C(=O)c1ncc([N+](=O)[O-])[nH]1

SMILES: Cc1cn2cc([N+](=O)[O-])nc2c(OCc2ccc(OC(F)(F)F)cc2)n1
CC50 (HEK293): >100

SMILES: CCOC(=O)c1nc([N+](=O)[O-])c[nH]1
CC50 (HEK293): >100

SMILES: NC(=O)c1nc([N+](=O)[O-])cn1CCO
CC50 (HEK293): >100

SMILES: NNC(=O)c1nc([N+](=O)[O-])cn1Cc1ccc(OC(F)(F)F)cc1
CC50 (HEK293): >100

SMILES: O=c1[nH]c(-c2ccc(OC(F)(F)F)cc2)cn2cc([N+](=O)[O-])nc12
CC50 (HEK293): >100

SMILES: Cc1cn2cc([N+](=O)[O-])nc2c(=O)n1Cc1ccc(OC(F)(F)F)cc1
CC50 (HEK293): >100

MIC (Staphylococcus aureus [1]): 16 µg/mL (≈ 48.5 µM)
SMILES: O=C(NCc1cccc(OC(F)(F)F)c1)c1ncc([N+](=O)[O-])[nH]1

MIC (Escherichia coli [2]): > 32 µg/mL | MIC (Staphylococcus aureus [1]): > 32 µg/mL | MIC (Acinetobacter baumannii [3]): > 32 µg/mL | MIC (Cryptococcus neoformans): > 32 µg/mL | MIC (Klebsiella pneumoniae [4]): > 32 µg/mL | MIC (Candida albicans): > 32 µg/mL | MIC (Pseudomonas aeruginosa [5]): > 32 µg/mL
SMILES: CN(Cc1ccccc1)C(=O)c1ncc([N+](=O)[O-])n1C
CC50 (HEK293; [11]): > 32 µg/mL

SMILES: CN(C)C(=O)c1nc([N+](=O)[O-])cn1Cc1ccc(OC(F)(F)F)cc1
CC50 (HEK293): >100

SMILES: O=C(O)C(F)(F)F.O=c1nc(N2CCN(CC3CCCCC3)CC2)sc2c([N+](=O)[O-])cc(C(F)(F)F)cc12
CC50 (HEK293): >50

SMILES: CC(=O)OCCn1c(C)cn2cc([N+](=O)[O-])nc2c1=O
CC50 (HEK293): >100

SMILES: Cc1nc(OCc2ccc(OC(F)(F)F)cc2)c2nc([N+](=O)[O-])cn2c1C
CC50 (HEK293): >100

SMILES: Cc1cn2cc([N+](=O)[O-])nc2c(=O)[nH]1
CC50 (HEK293): >100

SMILES: COc1nc(C)cn2cc([N+](=O)[O-])nc12
CC50 (HEK293): >50

SMILES: CNC(=O)c1nc([N+](=O)[O-])cn1Cc1ccc(OC(F)(F)F)cc1
CC50 (HEK293): >100

SMILES: Cc1c(C)n2cc([N+](=O)[O-])nc2c(=O)n1Cc1ccc(OC(F)(F)F)cc1
CC50 (HEK293): >100

MIC (Staphylococcus aureus [1]): 32 µg/mL (≈ 117 µM)
SMILES: Cc1ccc(CCNC(=O)c2ncc([N+](=O)[O-])[nH]2)cc1

SMILES: CN(C)C(=O)c1ncc([N+](=O)[O-])[nH]1
inhibition (Klebsiella pneumoniae [6]): Average; N=2 | inhibition (Acinetobacter baumannii [7]): Average; N=2 | inhibition (Staphylococcus aureus [8]): Average; N=2 | inhibition (Escherichia coli [9]): Average; N=2 | inhibition (Pseudomonas aeruginosa [10]): Average; N=2

MIC (Staphylococcus aureus [1]): 32 µg/mL (≈ 123 µM)
SMILES: Cc1ccc(CNC(=O)c2nc([N+](=O)[O-])c[nH]2)cc1

SMILES: CN(CCO)C(=O)c1ncc([N+](=O)[O-])[nH]1
inhibition (Klebsiella pneumoniae [6]): Average; N=2 | inhibition (Acinetobacter baumannii [7]): Average; N=2 | inhibition (Staphylococcus aureus [8]): Average; N=2 | inhibition (Escherichia coli [9]): Average; N=2 | inhibition (Pseudomonas aeruginosa [10]): Average; N=2

SMILES: O=C(NO)c1nc([N+](=O)[O-])cn1Cc1ccc(OC(F)(F)F)cc1
CC50 (HEK293): 36

SMILES: CCOC(=O)c1nc([N+](=O)[O-])cn1Cc1ccc(OC(F)(F)F)cc1
CC50 (HEK293): >100

SMILES: NC(=O)c1nc([N+](=O)[O-])cn1CC1CCCCC1
inhibition (Klebsiella pneumoniae [6]): Average; N=2 | inhibition (Acinetobacter baumannii [7]): Average; N=2 | inhibition (Staphylococcus aureus [8]): Average; N=2 | inhibition (Escherichia coli [9]): Average; N=2 | inhibition (Pseudomonas aeruginosa [10]): Average; N=2

SMILES: NC(=O)c1nc([N+](=O)[O-])cn1CCc1ccc(OC(F)(F)F)cc1
inhibition (Klebsiella pneumoniae [6]): Average; N=2 | inhibition (Acinetobacter baumannii [7]): Average; N=2 | inhibition (Staphylococcus aureus [8]): Average; N=2 | inhibition (Escherichia coli [9]): Average; N=2 | inhibition (Pseudomonas aeruginosa [10]): Average; N=2

SMILES: CC(NC(=O)c1ncc([N+](=O)[O-])[nH]1)c1ccc(F)cc1 (stereo not given)
inhibition (Klebsiella pneumoniae [6]): Average; N=2 | inhibition (Acinetobacter baumannii [7]): Average; N=2 | inhibition (Staphylococcus aureus [8]): Average; N=2 | inhibition (Escherichia coli [9]): Average; N=2 | inhibition (Pseudomonas aeruginosa [10]): Average; N=2

SMILES: Cc1[nH]c(=O)c2nc([N+](=O)[O-])cn2c1C
CC50 (HEK293): >100

SMILES: C[C@H]1COC2(CCN(c3nc(=O)c4cc(C(F)(F)F)cc([N+](=O)[O-])c4s3)CC2)O1 [BTZ-043]
CC50 (HEK293): >100

SMILES: CC(=O)OCCOc1nc(C)cn2cc([N+](=O)[O-])nc12
CC50 (HEK293): >100

SMILES: Cc1cn2cc([N+](=O)[O-])nc2c(OCCO)n1
CC50 (HEK293): >100

MIC (Escherichia coli [2]): > 32 µg/mL | MIC (Staphylococcus aureus [1]): > 32 µg/mL | MIC (Acinetobacter baumannii [3]): > 32 µg/mL | MIC (Cryptococcus neoformans): > 32 µg/mL | MIC (Klebsiella pneumoniae [4]): > 32 µg/mL | MIC (Candida albicans): > 32 µg/mL | MIC (Pseudomonas aeruginosa [5]): > 32 µg/mL
SMILES: Cn1c([N+](=O)[O-])cnc1C(=O)OC1CCCCC1
CC50 (HEK293; [11]): > 32 µg/mL

MIC (Escherichia coli [2]): > 32 µg/mL | MIC (Staphylococcus aureus [1]): > 32 µg/mL | MIC (Acinetobacter baumannii [3]): > 32 µg/mL | MIC (Cryptococcus neoformans): > 32 µg/mL | MIC (Klebsiella pneumoniae [4]): > 32 µg/mL | MIC (Candida albicans): > 32 µg/mL | MIC (Pseudomonas aeruginosa [5]): > 32 µg/mL
SMILES: Cn1c([N+](=O)[O-])cnc1C(=O)NC1CCCCC1
CC50 (HEK293; [11]): > 32 µg/mL

SMILES: CN(CCOC(=O)c1ncc([N+](=O)[O-])[nH]1)C(=O)c1ncc([N+](=O)[O-])[nH]1
inhibition (Klebsiella pneumoniae [6]): Average; N=2 | inhibition (Acinetobacter baumannii [7]): Average; N=2 | inhibition (Staphylococcus aureus [8]): Average; N=2 | inhibition (Escherichia coli [9]): Average; N=2 | inhibition (Pseudomonas aeruginosa [10]): Average; N=2

SMILES: Cc1cn2cc([N+](=O)[O-])nc2c(=O)n1CCO
CC50 (HEK293): >100

SMILES: [N-]=[N+]=NCCOc1nc(-c2ccccc2)cn2cc([N+](=O)[O-])nc12
inhibition (Klebsiella pneumoniae [6]): Average; N=2 | inhibition (Acinetobacter baumannii [7]): Average; N=2 | inhibition (Staphylococcus aureus [8]): Average; N=2 | inhibition (Escherichia coli [9]): Average; N=2 | inhibition (Pseudomonas aeruginosa [10]): Average; N=2

SMILES: O=C(NCCO)c1ncc([N+](=O)[O-])[nH]1
inhibition (Klebsiella pneumoniae [6]): Average; N=2 | inhibition (Acinetobacter baumannii [7]): Average; N=2 | inhibition (Staphylococcus aureus [8]): Average; N=2 | inhibition (Escherichia coli [9]): Average; N=2 | inhibition (Pseudomonas aeruginosa [10]): Average; N=2

SMILES: NC(=O)c1nc([N+](=O)[O-])cn1Cc1ccccn1
inhibition (Klebsiella pneumoniae [6]): Average; N=2 | inhibition (Acinetobacter baumannii [7]): Average; N=2 | inhibition (Staphylococcus aureus [8]): Average; N=2 | inhibition (Escherichia coli [9]): Average; N=2 | inhibition (Pseudomonas aeruginosa [10]): Average; N=2

SMILES: NC(=O)c1nc([N+](=O)[O-])cn1Cc1cccc(OC(F)(F)F)c1
inhibition (Klebsiella pneumoniae [6]): Average; N=2 | inhibition (Acinetobacter baumannii [7]): Average; N=2 | inhibition (Staphylococcus aureus [8]): Average; N=2 | inhibition (Escherichia coli [9]): Average; N=2 | inhibition (Pseudomonas aeruginosa [10]): Average; N=2
